Results: patent publication US11229649B2, “Methods for treating cryptosporidiosis using triazolopyridazines” (University of Vermont and State Agricultural College, priority 2015, dated 2022)
“Also recorded” adds a separate entry of the source. Read-outs that look alike come from different tables or passages of the source.

Tests used:
[1] = Pharmacokinetics in male Sprague Dawley rats (IV and oral); format: in vivo, rat
Experimental: The pharmacokinetics of MMV665917 were studied in overnight-fasted male Sprague Dawley rats that had access to water ad libitum throughout the pre- and post-dose sampling period, and access to food was re-instated 4 h (hour) post-dose. MMV665917 was administered intravenously as a 10 min (minute) constant rate infusion via an indwelling jugular vein cannula (1 mL per rat, n=2 rats) and orally by gavage (10 mL/kg per rat, n=2 rats). Samples of arterial blood and total urine were collected up to 24 h post-dose. Arterial blood was collected directly into borosilicate vials (at 4° C.) containing heparin, Complete® (a protease inhibitor cocktail), potassium fluoride, and EDTA to minimise potential for ex vivo degradation of test compound in blood/plasma samples. Once collected, blood samples were centrifuged, supernatant plasma was removed and stored frozen (−20° C.) until analysis by LC-MS. IV Formulation. MMV665917 was dissolved in propylene glycol and ethanol before Milli-Q water was added producing a clear solution. The formulation was filtered through a 0.22 μm syringe filter prior to dosing, and the measured concentration of compound the filtered solution was 0.24 mg/mL. Oral Formulation. MMV665917 was wet milled in HPMC-SV in an agate mortar and sonicated for 10 minutes producing a uniform suspension. The bulk formulation was mixed by inverting the tubes prior to drawing each dosing volume and the average measured concentration of compound in aliquots (n=3) of formulation was 0.32 mg/mL (range 0.28-0.37 mg/mL).

[2] = Mouse plasma concentration, single oral dose and simulated BID dosing; format: in vivo
Experimental: Compounds were dosed as indicated either orally by oral gavage or intravenously, and serum samples were collected at the indicated time points. The MMV665917 plasma concentration was measured by LC-MS/MS.
(§1) Mouse serum concentrations measured from a single 55 mg/kg oral dose of MMV665917 (see above figure) were used to simulate the mouse serum concentrations following BID dosing of either 30 mg/kg or 60 mg/kg. The measured calf plasma concentration following a single 22 mg/kg oral dose is also shown. Note that a minimum concentration of EC90 was required for parasite elimination in vitro, and the rate of parasite elimination in vitro was maximized at 3× the EC90 concentration.
as §1, with “The actual and simulated mouse and calf plasma concentrations for MMV665917, correlated to the EC90 and 3×EC90 concentrations are shown in FIG. 9. Mouse” for “Mouse”, “(FIG. 9)” for “(see above figure)”

[3] = In vitro plasma/blood stability and whole blood-to-plasma ratio; format: in vitro ADME, rat; details: 37° C.
Experimental: In Vitro Determination of Plasma/Blood Stability and Whole Blood-to-Plasma Ratio. MMV665917 was spiked into fresh heparinized whole blood (collected from male Sprague Dawley rats) or plasma of a corresponding volume (which acted as a matrix control) to an initial nominal concentration of 500 ng/mL. As a whole blood assay for the compound was not available, the concentration of MMV665917 in the spiked plasma (i.e. matrix control) was used as a surrogate measurement of the spiked whole blood concentration. Whole blood samples were incubated at 37° C. for up to 240 min after which plasma and erythrocytes were separated by centrifugation prior to determination of plasma concentrations by LC-MS. Whole blood-to-plasma partitioning ratios (B/P) were obtained by dividing the measured concentration in the plasma control sample by the concentration measured in plasma following centrifugation of whole blood.

C. parvum Iowa strain = assay: Static or cidal assay: C. parvum persistence in HCT-8 cells at multiples of the EC90; format: cell-based, Cryptosporidium parvum; details: compound added 24 hours after infection of HCT-8 cells (FIG. 7)
Experimental: HCT-8 cell monolayers are infected and parasites are allowed to replicate for 24 hours before addition of experimental drug compounds. Parasite numbers are then measured at different time points following compound addition by epifluorescence microscopy, using the same method as used in FIG. 1.
To assess if MMV665917 is cidal or static for C. parvum and determine the concentration of compound required to maximize the rate of parasite elimination, C. parvum persistence in HCT-8 colonic carcinoma cells was assayed in the presence of increasing multiples of the in vitro EC90. Briefly, the assay infects HCT-8 intestinal epithelial cells with the C. parvum Iowa strain as in Example 1. Parasites are then allowed to develop for 24 hours prior to the addition of the indicated concentration of experimental compounds (time 0 in the graphs above). At the indicated times following compound addition, samples are then fixed, the host cells and parasites are fluorescently stained, and parasites are enumerated by automated epifluorescence microscopy and image process as described in Example 1.

C. parvum (Iowa strain) = assay: NOD SCID gamma immunocompromised mouse model of cryptosporidiosis (fecal oocyst shedding by qPCR); format: in vivo, Cryptosporidium parvum
Excerpt: A NOD SCID gamma mouse model was used for in vivo testing of confirmed screening hits. NOD SCID gamma mice (Jackson Laboratories) develop Cryptosporidium parvum infection following oral gavage that is characterized by persistent infection of the small intestinal and cecal epithelium. The mice remain asymptomatic and gain weight normally. Infection is established by oral gavage of 1×10^4 C. parvum (Iowa strain) oocysts on day −6. Fecal parasite shedding is quantified by quantitative PCR of genomic DNA, using a standard curve generated by spiking oocysts into fecal samples from uninfected mice. Fecal oocyst shedding reliably becomes detectable at day 1 (1 week after infection). Experimental compounds are administered by oral gavage of 30 mg/kg in DMSO:1% HPMC (5:95) twice daily for 4 days. Parasite shedding is compared to that for infected mice treated with drug carrier alone (i.e. DMSO:1% HPMC (5:95)).
Results for treatment of C. parvum infected NOD SCID gamma mice with DMSO or selected MMV Malaria Box screening hits with confirmed in vitro activity given by oral gavage of 30 mg/kg twice daily on days 1-4 can be seen in FIG. 2. Cryptosporidium parvum infection was established on day −6. Parasite shedding is detectable in all animals on day 1. […] Other compounds and DMSO had no effect. Data shown are the mean and SE for parasites detected/mg of feces (n=4 animals per treatment group).
A repeat of the experiment presented in FIG. 2 showing efficacy of MMV665917 in the NOD SCID gamma mouse model is presented in FIG. 5. […] For this experiment, NOD SCID gamma mice were infected on day −6 by oral gavage of C. parvum oocysts, shedding was detected at day 0 prior to compound dosing, compounds or vehicle were dosed on days 0-6 as indicated, and mice were maintained for one week following cessation of treatment. Data shown are the mean and SE for the number of oocysts/mg stool detected by real time PCR of the feces on the indicated day (four mice per experimental group).

C. parvum = C. parvum growth inhibition in HCT-8 cells, in vitro dose response (immunofluorescence); format: cell-based; details: Cryptosporidium parvum; C. parvum in HCT-8 cells; plate control of the screen; read-out: 90% inhibitory concentration (IC90)
Experimental: Materials and Methods: Cell culture and Cryptosporidium infections: The high throughput screen for C. parvum growth inhibitors was carried out using human ileocecal adenocarcinoma (HCT-8) cells (ATCC) maintained in RPMI 1640 medium with HEPES, sodium pyruvate (1 mM) and L-glutamate with 10% horse serum (ATCC) supplemented with 120 U/mL penicillin and 120 μg/mL streptomycin. HCT-8 cells were grown to confluence in 384-well, tissue culture-treated, black-walled, clear-bottom microwell plates (BD Falcon). […]
Infected monolayers were washed three times with PBS containing 111 mM D-galactose using an EL406 automated plate washer (Biotek), fixed with 4% paraformaldehyde, permeabilized with 0.25% Triton X-100 in PBS, and then blocked with 4% bovine serum albumin (BSA). Vegetative forms of C. parvum were detected by the addition of biotinylated Vicia villosa lectin (VVL; Vector Laboratories) and streptavidin-conjugated Alexa Fluor 568 (Invitrogen) diluted in PBS with 1% BSA and 0.1% Tween 20. […]
ImageJ outputs were imported into Microsoft Excel for data organization and analysis. Percent inhibition was calculated (equation 1) for each well in order to normalize the data and to facilitate the combination of data from individual biological replicates. […]

Cryptosporidium = details: cited from earlier work
[4] = 30 mg/kg twice daily oral gavage, days 1-4 (FIG. 2)

O=C(Nc1ccc(Cl)cc1)N1CCN(c2ccc3nncn3n2)CC1 [MMV665917]
half-life ([1]; male, Sprague Dawley, rat, plasma, 0.24 mg per rat, rats, IV administration, read-out: apparent terminal half-life): 3 to 4 h
bioavailability ([1]; male, Sprague Dawley, rat, plasma, po, 3.2 mg/kg, rats, oral administration, read-out: apparent oral bioavailability): 24 to 43%
haemolysis in plasma ([1]; rat, in vivo, iv): Evidence of haemolysis was observed
apparent volume of distribution ([1]; rats, IV administration): moderate
in vivo clearance ([1]; rats, IV administration): low
time plasma concentrations remained above the analytical LLQ ([1]; rats, IV administration): 16 h
fraction of the dose recovered in urine as intact compound ([1]; rats, IV, 24 h sampling period): approximately 25%
adverse reactions or compound related side effects ([1]; rats, following IV or oral administration): No adverse reactions or compound related side effects were observed
absorption ([1]; rats, oral administration): slowly absorbed
apparent terminal half-life ([1]; rats, oral administration): consistent with that observed after IV dosing
time of maximum plasma concentrations ([1]; rats, oral administration): 5 h post-dose
intestinal absorption ([2]; mouse (FIG. 4)): slow
serum half-life ([2]; mouse (FIG. 4)): prolonged
systemic exposure ([2]; mouse (FIG. 4)): moderate
plasma/serum concentration relative to the EC90 / 3×EC90 ([2]; mouse, 30 mg/kg BID, simulated from single 55 mg/kg oral dose): exceeds the EC90 for just over ½ the dosing interval; also recorded: not attained
time to peak serum concentration ([2]; mouse, single dose (FIG. 4)): 6 h
stability in rat plasma and whole blood ([3]; up to 240 min, 500 ng/mL): stable
blood plasma ratio at 500 ng/mL ([3]; male, Sprague Dawley, fresh heparinized whole blood, rat blood, read-out: apparent in vitro whole blood to plasma partitioning ratio (B/P)): 1.1
static or cidal for C. parvum (C. parvum Iowa strain): cidal
efficacy across the two experiments (C. parvum (Iowa strain); 30 mg/kg BID (effective in FIG. 2, ineffective in FIG. 5)): variable efficacy; also recorded: variably efficacious
parasite shedding (oocysts/mg feces) (C. parvum (Iowa strain); [4]): significantly reduced parasite shedding
persistence of reduced parasite shedding following cessation of treatment (C. parvum (Iowa strain); [4]): > 3 days
efficacy on C. parvum shedding, repeat experiment (C. parvum (Iowa strain); 30 mg/kg twice daily oral gavage, seven days (FIG. 5)): inactive; also recorded: not effective
efficacy on C. parvum shedding, repeat experiment (C. parvum (Iowa strain); 60 mg/kg twice daily oral gavage, seven days (FIG. 5)): eliminated detection of C. parvum shedding in the feces; also recorded: cured; also recorded: curative
relapse over the week following cessation of treatment (C. parvum (Iowa strain); 60 mg/kg twice daily, seven days (FIG. 5)): no relapse was observed

CC(=O)Oc1ccccc1C(=O)Nc1ncc([N+](=O)[O-])s1 [nitazoxanide]
IC90 (C. parvum): 6.6 µM
static or cidal for C. parvum (C. parvum Iowa strain): static
activity in the NOD SCID gamma mouse model (C. parvum (Iowa strain); dose not stated): lacks activity
efficacy in cryptosporidiosis (Cryptosporidium; AIDS patients / immunocompromised people): lacks activity
efficacy in cryptosporidiosis (Cryptosporidium; AIDS patients / immunocompromised people, listed as Nitazoxanide): no more effective than placebo
efficacy in cryptosporidiosis (Cryptosporidium; children): partial efficacy

NC[C@@H]1O[C@H](O[C@H]2[C@@H](O)[C@H](O[C@@H]3[C@@H](O)[C@H](N)C[C@H](N)[C@H]3O[C@H]3O[C@H](CO)[C@@H](O)[C@H](O)[C@H]3N)O[C@@H]2CO)[C@H](N)[C@@H](O)[C@@H]1O [paromomycin, reference compound]
relapse after treatment cessation (C. parvum (Iowa strain); 1000 mg/kg twice daily, positive control (FIG. 5)): relapsed quickly after treatment cessation
